Series [1] can be described thus: NMR-based stability assay in cell culture medium. Format: physicochemical. To be noted: ~8 mM in DMSO-d6 diluted 1:3 with DMEM + 10% FCS; NMR at 37°C for 16 hours; compared with Example Compound 1; Figures 1-3.
For the next series, the target named is KLK6 (Homo sapiens, UniProt Q92876). In words: Biochemical inhibition assay, fluorogenic substrate FSR-AMC. To be noted: read-out: KLK6 IC50; KLK6 5 nM (produced in insect cells); 30 min incubation with inhibitor; FSR-AMC 20 µM; Tris pH 7.5.
For another series, the target named is Thrombin (Homo sapiens, UniProt P00734). The series is described as above. The conditions noted are these: read-out: Thrombin IC50; Thrombin 9.8·10^-5 NIH unit/mL; 30 min incubation with inhibitor; FSR-AMC 20 µM; Tris pH 7.5.
For another series, the target named is Trypsin (Homo sapiens, UniProt P07477). The series is described as above. To be noted: read-out: Trypsin IC50; Trypsin 0.88 ng/mL; 30 min incubation with inhibitor; FSR-AMC 20 µM; Tris pH 7.5.
A further series addresses Factor Xa (Homo sapiens, UniProt P00742). Described as above. To be noted: read-out: Factor Xa IC50; Factor Xa 4 nM; 30 min incubation with inhibitor; FSR-AMC 20 µM; Tris pH 7.5.

The structures appear in SMILES notation.

Consider 15 molecules from patent publication EP3305781A1, “CHEMICAL SUBSTANCES WHICH INHIBIT THE ENZYMATIC ACTIVITY OF HUMAN KALLIKREIN-RELATED PEPTIDASE 6 (KLK6)” (Deutsches Krebsforschungszentrum, priority 2016, dated 2018).

Factor Xa, sequence (P00742 235-488 limits assumed): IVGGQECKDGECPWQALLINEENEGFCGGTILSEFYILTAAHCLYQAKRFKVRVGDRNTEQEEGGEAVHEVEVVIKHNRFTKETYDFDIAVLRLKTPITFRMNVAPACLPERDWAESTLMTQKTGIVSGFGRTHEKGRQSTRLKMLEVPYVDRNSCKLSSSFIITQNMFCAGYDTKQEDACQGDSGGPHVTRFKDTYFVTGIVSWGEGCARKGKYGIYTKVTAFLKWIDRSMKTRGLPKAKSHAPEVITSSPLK
Factor Xa, sequence (P00742 41-179 partner limits assumed): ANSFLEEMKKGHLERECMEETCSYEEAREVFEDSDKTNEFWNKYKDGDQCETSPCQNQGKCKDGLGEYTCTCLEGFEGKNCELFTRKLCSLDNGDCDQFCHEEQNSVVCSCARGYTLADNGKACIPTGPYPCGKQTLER
Method for Factor Xa: (§1) In a 384 well plate, 5 µL of eleven concentrations of inhibitor in 8% DMSO (serial dilution 2:1) and a blank were incubated with an equal amount of enzyme (KLK6, Thrombin, Trypsin or Factor Xa) diluted in 50 mM Tris pH 7.5, 150 mM NaCl, 1 mM EDTA, 0.05% Tween20 assay buffer for 30 minutes. […] Inhibition of the enzyme as a function of the inhibitor concentration was used to generate dose response curves, which allowed estimating IC50 values, according to the following equation in GraphPad Prism: y = ymin + (ymax−ymin)/(1+10^(((LogIC50−x)*HillSlope))) [formula]
(§2) Assay final concentrations: • KLK6: 5 nM • Trypsin: 0.88 ng/mL • Thrombin: 9.8·10^-5 NIH unit/mL • Factor Xa: 4 nM • FSR-AMC: 20 µM
Method for KLK6: as §1, §2
Method for Thrombin: as §1, §2
Method for Trypsin: as §1, §2

Regarding `Cc1nn(-c2ccccc2)c(C)c1NC(=O)COC(=O)Cc1c(C)[nH]c2ccccc12` [Example Compound 38, 2-((3,5-dimethyl-1-phenyl-1H-pyrazol-4-yl)amino)-2-oxoethyl 2-(2-methyl-1H-indol-3-yl)acetate], in series [1], the “stability in cell culture medium (ester hydrolysis)” value is reported as “totally enhanced”.

For `Cc1nn(-c2ccccc2)c(C)c1NC(=O)COC(=O)C(C)c1c(C)[nH]c2ccccc12` (stereo not drawn) [Example Compound 81, 2-((3,5-dimethyl-1-phenyl-1H-pyrazol-4-yl)amino)-2-oxoethyl 2-(2-methyl-1H-indol-3-yl)propanoate], the “stability in cell culture medium (ester hydrolysis)” value in series [1] is given as “further stabilizing properties”.

Consider `Cc1[nH]c2ccccc2c1CC(=O)OCC(=O)Nc1ccc(F)cn1` [compound 72], for which the IC50 amounted to 12.3 µM on KLK6, 60.3 µM at Thrombin, 50.4 µM on Trypsin and 65.9 µM at Factor Xa.

`Cc1[nH]c2ccccc2c1CC(=O)OCC(=O)Nc1ccccc1Cl` [compound 73]: the IC50 on KLK6 was 1.46 µM; on Thrombin it was more than 200 µM; on Trypsin it was 114 µM; on Factor Xa, 34.7 µM.

In the case of `Cc1ccc(NC(=O)COC(=O)Cc2c(C)[nH]c3ccccc23)cc1` [compound 74], the IC50 is 4.57 µM at KLK6, more than 200 µM at Thrombin, more than 200 µM on Trypsin and more than 200 µM at Factor Xa.

On to `Cc1cccc(NC(=O)COC(=O)Cc2c(C)[nH]c3ccccc23)c1` [compound 75], for which the IC50 on KLK6 was 5.38 µM; at Thrombin, more than 200 µM; at Trypsin it was more than 200 µM; at Factor Xa it was more than 200 µM.

As for `COc1ccccc1NC(=O)COC(=O)Cc1c(C)[nH]c2ccccc12` [compound 77], the IC50 on KLK6 is 1.86 µM; at Thrombin it was more than 200 µM; on Trypsin, 28.7 µM; at Factor Xa, 21.1 µM.

With `Cc1ccccc1NC(=O)COC(=O)Cc1c(C)[nH]c2ccccc12` [compound 78], the IC50 on KLK6 was 4.73 µM; on Thrombin, more than 200 µM; at Trypsin, more than 200 µM; on Factor Xa, more than 200 µM.

As for `COc1cccc(NC(=O)COC(=O)Cc2c(C)[nH]c3ccccc23)c1` [compound 79], the half-maximal inhibitory concentration (IC50) on KLK6 was 6.05 µM; at Thrombin, more than 200 µM; on Trypsin, more than 200 µM; on Factor Xa, more than 200 µM.

With `COc1ccc(NC(=O)COC(=O)Cc2c(C)[nH]c3ccccc23)cc1` [compound 80], the half-inhibitory concentration (IC50) on KLK6 is 6.55 µM; on Thrombin, more than 200 µM; at Trypsin, more than 200 µM; at Factor Xa it was more than 200 µM.

With `Cc1nn(-c2ccccc2)c(C)c1NC(=O)COC(=O)Cc1ccccc1N=[N+]=[N-]` [compound 82], the IC50 was 27.3 µM on KLK6, more than 200 µM at Thrombin, more than 200 µM on Trypsin and more than 200 µM at Factor Xa.

For `Cc1nn(-c2ccccc2)c(C)c1NC(=O)COC(=O)C(C)c1c[nH]c2ccccc12` (stereo not drawn) [compound 83], the half-maximal inhibitory concentration (IC50) was 14.3 µM at KLK6, more than 200 µM on Thrombin, more than 200 µM on Trypsin and more than 200 µM at Factor Xa.

Turning to `Cc1[nH]c2ccccc2c1CC(=O)OCC(=O)Nc1cccc(C(N)=O)c1` [compound 84], the concentration for half-maximal inhibition (IC50) at KLK6 was found to be 3.27 µM; at Thrombin, 90.6 µM; at Trypsin, 82.1 µM; at Factor Xa, 67.5 µM.

Consider `Cc1[nH]c2ccccc2c1CC(=O)OCC(=O)NCc1ncc[nH]1` [compound 85], for which the IC50 is 172 µM on KLK6, more than 200 µM on Thrombin, more than 200 µM at Trypsin and 157 µM on Factor Xa.

`Cc1nn(-c2ccccc2)c(C)c1N(C)C(=O)COC(=O)Cc1c(C)[nH]c2ccccc12` [compound 88]: the IC50 on KLK6 was 2.88 µM; at Thrombin, 14.1 µM; on Trypsin it was 9.1 µM; on Factor Xa, 18.1 µM.

Usually IC50 stands for the concentration at which inhibition is half-maximal.
